Measured values as given in patent US20110189260A1, “USE OF ZINC CHELATORS TO INHIBIT BIOFILM FORMATION” (UNIVERSITY OF CINCINNATI, priority 2008, published 2011).
Like-named read-outs stand apart in the source and are kept apart here.

Columns and labels:
[1] = target: Brpt2.5 (Aap construct with two G5 domains and the C-terminal cap) (Staphylococcus epidermidis)
[2] = target: Brpt2.5 (Aap construct with two G5 domains and the C-terminal cap) (Staphylococcus epidermidis); test: sedimentation equilibrium AUC at 0 mM Zn; sequence mass monomer 35,971, dimer 71,942
[3] = target: Brpt2.5 (Aap construct with two G5 domains and the C-terminal cap) (Staphylococcus epidermidis); test: sedimentation equilibrium AUC at 10 mM Zn; sequence mass monomer 35,971, dimer 71,942
[4] = target: Brpt2.5 (Aap construct with two G5 domains and the C-terminal cap) (Staphylococcus epidermidis); test: sedimentation equilibrium AUC, monomer-dimer association at 5 mM Zn
[5] = target: Brpt2.5 (Aap construct with two G5 domains and the C-terminal cap) (Staphylococcus epidermidis); test: sedimentation equilibrium AUC, monomer-dimer association at 2 mM Zn
[6] = tested on: S. epidermidis RP62A biofilms; test: RP62A biofilms on polystyrene visualized with crystal violet (FIG. 3A, 3C, 4, 7, 8); assay type: cell-based
[7] = Mg; cited from earlier work
[8] = Sr; cited from earlier work
[9] = tested on: Methicillin-Resistant Staphylococcus epidermidis Strain RP62a; test: Biofilm formation assay in 96 well plates, crystal violet, absorbance at 570 nm (Example 8); assay type: cell-based; conditions: 18-24 hours, 37° C.
Method: S. epidermidis strain RP62a (ATCC 35984) was obtained as a glycerol stock from ATCC. 3 ml overnight cultures were grown in tryptic soy broth (TSB, BD Biomedical), shaking at 37° C., and cultures were diluted 1:200 in TSB for use in the biofilm assay.
Each chelator (prepared in Examples 1-6) was added directly to a 96 well microtiter plate in a series of dilutions. 20 μl of each stock solution (200, 400, 800, 1600, 3200, 6400, 13000, or 26000 μM chelator) was added to each well. 200 μl of the 1:200 dilution of RP62a bacterial culture (as previously specified) was added to each well. Controls with bacterial culture media only and bacterial culture media plus vehicle controls only (i.e., final concentrations 10 mM HCl, 10% ethanol, or 10 mM NaOH) were added to wells alone without chelator. The 96 well plates were then incubated 18-24 hours statically at 37° C. Media was aspirated by pipet and wells were washed twice with filtered water. The plates were dried by inversion for 1 hour, and stained with 0.1% crystal violet for 15 minutes. Crystal violet was then aspirated by pipet and washed once with filtered water. The plates were then read on a spectrophotometer at a wavelength of 570 nm. An absorbance greater than 0.1 indicates biofilm formation.

[10] = Ca; cited from earlier work
[11] = tested on: Staphylococcus aureus Strain Rosenbach SA113; test: Biofilm formation assay in FBS pre-treated 96 well plates, crystal violet (Example 9); assay type: cell-based; conditions: SA113, 2% glucose, 36-40 hours
Method: In addition, 96 well microtiter plates were pre-treated with fetal bovine serum (FBS) at 4° C. for at least 24 hours prior to use. The FBS was aspirated prior to addition of chelators and glucose for the assay. […] The 96 well plates were then incubated 36-40 hours statically at 37° C. Media was aspirated by pipet and wells were washed twice with filtered water. The plates were dried by inversion for 1 hour, and stained with 0.1% crystal violet for 15 minutes. Crystal violet was then aspirated by pipet and washed once with filtered water. The plates were then read on a spectrophotometer at a wavelength of 570 nm.

[12] = Zn; cited from earlier work
[13] = tested on: Methicillin-Resistant Staphylococcus aureus Strain USA300; test: Biofilm formation assay in fibronectin pre-treated 96 well plates, crystal violet (Example 11); assay type: cell-based; conditions: USA300, 2% glucose, 36-40 hours
Method: S. aureus strain USA300 was obtained from Daniel Hassett (University of Cincinnati) as a glycerol stock. 3 ml overnight cultures were grown in blood-heart infusion broth (BHI) shaking at 37° C., where cultures were diluted 1:25 for use in the biofilm assay. 2% glucose (20 ul from a 20% glucose stock) was added to each well prior to the addition of bacterial culture to promote biofilm formation. In addition, 96 well microtiter plates were pre-treated with human fibronectin (BD biomedical purchased from Fisher scientific). The fibronectin was aspirated prior to addition of chelators and glucose for the assay. Each chelator (prepared in Examples 1-6) was added directly to a 96 well microtiter plate in a series of dilutions. 20 μl of each stock solution (200, 400, 800, 1600, 3200, 6400, 13000, or 26000 μM chelator) was added to each well. 200 μl of the 1:25 dilution of USA300 bacterial culture dilution (as previously specified) were added to each well. Controls with bacterial culture media only and bacterial culture media plus vehicle controls only (final concentrations 10 mM HCl, 10% ethanol, and 10 mM NaOH) were added to wells alone without chelator. The 96 well plates were then incubated 36-40 hours statically at 37° C. Media was aspirated by pipet and wells were washed twice with filtered water. The plates were dried by inversion for 1 hour, and stained with 0.1% crystal violet for 15 minutes. Crystal violet was then aspirated by pipet and washed once with filtered water. The plates were then read on a spectrophotometer at a wavelength of 570 nm. An absorbance greater than 0.1 indicates biofilm formation.

[14] = tested on: Methicillin-resistant S. aureus USA300 biofilms; test: USA300 biofilms on fibronectin-coated plates (FIG. 3B, 3D); assay type: cell-based; conditions: USA300 on fibronectin-coated plates, FIG. 3B
Method: (§1) FIG. 3. (A) S. epidermidis RP62A biofilms formed on polystyrene and were visualized with crystal violet; addition of the Zn^2+ chelator DTPA (≧30 μM) inhibits biofilm formation. Representative wells have been scanned (bottom). Untreated (“RP62A”) and vehicle (“HCl”) controls are shown. Error bars show standard deviation (* indicates p<0.05 relative to untreated control; n=3); (B) Methicillin-resistant S. aureus USA300 biofilms form on fibronectin-coated plates but are inhibited by addition of DTPA (≧30 μM). (*: p<0.05; n=4); (C) Addition of 5-20 μM ZnCl2 at a minimal inhibitory dose of DTPA (30 μM) rescues biofilm formation by RP62A.
S. aureus strain USA300, which is responsible for recent epidemic outbreaks of community-acquired methicillin-resistant S. aureus (MRSA) infections, formed biofilms on fibronectin-coated plates. As observed for S. epidermidis, the MRSA biofilms were inhibited by Zn^2+ chelation (≧30 μM DTPA) (FIG. 3B). […] Like S. epidermidis, the MRSA strain USA300 could be rescued by the addition of 15-20 μM ZnCl2 (FIG. 3D). Importantly, at the minimal inhibitory concentration of DTPA (30 μM), biofilm growth by both staphylococcal species could be rescued by the addition of 5-20 μM ZnCl2; these Zn^2+ concentrations are similar to the physiological range in human plasma (12-16 μM resting concentration).

[15] = tested on: S. epidermidis RP62A biofilms; test: RP62A biofilms on polystyrene visualized with crystal violet (FIG. 3A, 3C, 4, 7, 8); assay type: cell-based; conditions: RP62A on polystyrene, FIG. 3A
Method: as §1
FIG. 4. […] (*: p<0.05 relative to RP62A control at the relevant Zn^2+ concentration; n=3); (B) Dose response of biofilm inhibition by MBP-Brpt1.5 at a fixed 1 mM ZnCl2 concentration. (*: p<0.0005; n=3); (C) The “zinc zipper” model for intercellular adhesion in staphylococcal biofilms mediated by zinc-dependent self-association of G5 domains.
FIG. 7. […] All data at 30 μM DTPA show statistically significant decreases compared to no-treatment control (RP62A). Statistically significant increases over the 0 μM MnCl2/30 μM DTPA datapoint are marked with an asterisk (*).
To test the physiological role of Zn^2+-mediated G5 adhesion in the formation of staphylococcal biofilms, both S. epidermidis and S. aureus biofilms were grown in culture in the presence or absence of the Zn^2+ chelator diethylenetriaminepentaacetic acid (DTPA). DTPA was non-toxic at all concentrations tested (up to 100 μM). S. epidermidis strain RP62A formed robust biofilms when cultured in media alone, but biofilm growth was inhibited by non-toxic doses of DTPA (≧30 μM) (FIG. 3A).
To determine whether Zn^2+-dependent biofilm formation is specifically dependent upon G5 domain-mediated self-assembly, soluble Brpt1.5 was added to S. epidermidis RP62A biofilms as a maltose-binding protein (MBP) fusion. Because of the higher Zn^2+ concentrations required to induce dimerization in the short construct compared to full-length Aap, inhibition by MBP-Brpt1.5 was tested at Zn^2+ concentrations ranging up to 1 mM. RP62A biofilms were inhibited by soluble MBP-Brpt1.5 in the presence of 0.75 and 1 mM ZnCl2, whereas addition of MBP alone had no effect (FIG. 4A). […] Thus, addition of even a single intact zinc adhesion module in a soluble form is capable of inhibiting biofilm formation, highlighting the role of this domain as a Zn^2+-dependent adhesion module in staphylococcal biofilms.

[16] = Mn; cited from earlier work
[17] = target: the molecule itself; test: sedimentation velocity analytical ultracentrifugation; self-association with and without 10 mM ZnCl2, normalized c(s) [panel E]
[18] = target: the molecule itself; test: sedimentation equilibrium AUC, monomer-dimer association at 5 mM Zn; 5 mM Zn (ZnCl2), sedimentation equilibrium
[19] = target: the molecule itself; test: sedimentation equilibrium AUC, monomer-dimer association at 10 mM Zn; 10 mM Zn (ZnCl2), sedimentation equilibrium
[20] = target: the molecule itself
[21] = target: the molecule itself; test: sedimentation equilibrium AUC, monomer-dimer association at 2 mM Zn; 2 mM Zn (ZnCl2), sedimentation equilibrium
[22] = tested on: G5 domains of Aap (Zn^2+-mediated monomer-dimer association); conditions: 10 mM ZnCl2, pH 7.4 to 6.0, FIG. 6B
Method: The dashed line label (- - -) represents cation-free Brpt1.5; (B) Far-UV CD spectrum of Brpt1.5 in the presence (squares) and absence (triangles) of Zn; (C) Sedimentation equilibrium analysis of Zn^2+-mediated dimerization of Brpt1.5 (triangles) and Brpt2.5 (squares). […] Error bars show 95% confidence intervals; (D) Linked equilibrium plot of Zn binding by Brpt1.5.
(A) Sedimentation velocity analysis of the Zn^2+-dependent dimerization of Brpt1.5 as a function of pH in 20 mM Tris, 20 mM MES, 50 mM NaCl, and 10 mM ZnCl2. […] Dashed lines show data collected in the absence of Zn^2+, and solid lines show data collected at 10 mM ZnCl2.
To analyze the linked equilibria between dimerization and Zn^2+ binding, the logarithm of the dimerization association constant was plotted against the logarithm of the free Zn^2+ concentration to reveal the net number of Zn^2+ ions participating in the dimerization interface.

## Brpt2.5 (Aap construct with two G5 domains and the C-terminal cap)
[1]
  EC50 of [Zn2+] for dimerization: 3700 µM
[2]
  Mexperimental (molecular weight): 37000
[3]
  Mexperimental (molecular weight): 78500
[4]
  Kd: 0.072 µM
[5]
  Kd: 25.5 µM

## O=C(O)CN(CCN(CC(=O)O)CC(=O)O)CCN(CC(=O)O)CC(=O)O [DTPA, diethylenetriaminepentaacetic acid]
[6]
  disruption of pre-formed biofilms: did not disrupt
[7]
  affinity for DTPA (log K): 9.3
[8]
  affinity for DTPA (log K): 9.68
[9]
  chelator concentration at which biofilms were diminished but not cleared: 20 µM
  chelator concentration at which biofilms were inhibited (absorbance of 0.1 or less): 40 µM
[10]
  affinity for DTPA (log K): 10.74
[11]
  chelator concentration at which biofilms were inhibited (absorbance of 0.1 or less): 20 µM
[12]
  affinity for DTPA (log K): 18.75
[13]
  chelator concentration at which biofilms were diminished but not cleared: 20 µM
[14]
  concentration that inhibits biofilm formation: ≥ 30 µM
[15]
  concentration that inhibits biofilm formation: ≥ 30 µM
[16]
  affinity for DTPA (log K): 15.5

B1: H75A/H85A Brpt1.5 mutant (other)
chain: VDGDSITSTEEIPFDKKREFDPNLAPGTEKVVQKGEPGTKTITTPTTKNPLTGEKVGEGEPTEKITKQPVDEIVAYGGEQIPQGAKDEFDPNAPVDSKTEVPGKPGVKNPDTGEVVTPPVDDVTKYGPVDGDSITSTEEIPFDKKREFDPNLAPGTEKVVQKGEPGTKTITTPTTKNPLTGEKVGEGKSTEKVTKQPVDEIVEYGPTK
notes: also called histidine-null mutant
[17]
  binding result: binds

B2: Brpt1.5 (C-terminal G5 domain of the B-repeat region of Aap followed by the C-terminal 79 amino acid half-repeat) (other)
chain: VDGDSITSTEEIPFDKKREFDPNLAPGTEKVVQKGEPGTKTITTPTTKNPLTGEKVGEGEPTEKITKQPVDEIVHYGGEQIPQGHKDEFDPNAPVDSKTEVPGKPGVKNPDTGEVVTPPVDDVTKYGPVDGDSITSTEEIPFDKKREFDPNLAPGTEKVVQKGEPGTKTITTPTTKNPLTGEKVGEGKSTEKVTKQPVDEIVEYGPTK
notes: also called wild-type Brpt1.5; zinc adhesion module
[18]
  Kd: 5.06 µM
[19]
  Kd: 0.353 µM
[20]
  EC50 of [Zn2+] for dimerization: 5400 µM
[21]
  Kd: 113 µM

B3: Brpt1.5: single G5 domain of Aap B-repeat region followed by the C-terminal 79 amino acid half-repeat (protein)
chain: VDGDSITSTEEIPFDKKREFDPNLAPGTEKVVQKGEPGTKTITTPTTKNPLTGEKVGEGEPTEKITKQPVDEIVHYGGEQIPQGHKDEFDPNAPVDSKTEVPGKPGVKNPDTGEVVTPPVDDVTKYGPVDGDSITSTEEIPFDKKREFDPNLAPGTEKVVQKGEPGTKTITTPTTKNPLTGEKVGEGKSTEKVTKQPVDEIVEYGPTK
[22]
  apparent pKa of dimer to monomer transition: 6.7
